Data set [1] has as its system Mrtfa mRNA in NIH/3T3 fibroblasts. Description: qRT-PCR Mrtfa mRNA. It is filed as cell-based, mouse. The settings on record: 48 h, TGF-β1 10 ng/mL. The protocol:
Reverse transcription (RT) and real-time quantitative PCR (qRT-PCR) were used to assess ACTA2/Acta2, Col1a1, Col3a1, Fn1, Eda-Fn1, Mmp9, Tgfb1, Ltbp1, Hic5, and Mrtfa mRNA expressions. Custom PCR primers were designed in-house (Table 2) and then synthesized by BGI (Beijing, China). Cells were grown in 6-well culture plates and washed with phosphate buffered saline (PBS) before lysis with TRIzon Reagent (CWBio, Beijing, China) and total RNA purification according to the manufacturer’s protocol. Reverse transcription was carried using the TransScript First-Strand cDNA Synthesis SuperMix kit according to the manufacturer’s protocol (TransGen, Beijing, China), using the random primer method for the initiation of cDNA synthesis. Nuclease-free H2O replaced the RNA sample to serve as a negative control for the reverse transcription reaction. For qRT-PCR, 10 µL 2× TransStart Top Green qPCR SuperMix was added to each well of a 96-well PCR plate containing 0.4 µL forward primer, 0.4 µL reverse primer, […], and nuclease-free water to a total volume of 20 µL. The qRT-PCR reaction was completed using a CFX96 Real-Time PCR Detection System (Bio-Rad Laboratories, Hercules, CA, USA). Amplification used the following parameters: 94 °C for 30 s, followed by 40 cycles of 94 °C for 5 s, 55 °C for 15 s, 72 °C for 10 s, and then a dissociation stage (melt-curve). […]
A general note: In qPCR the cycle at which signal appears reflects the starting amount.

Data set [2] concerns vascular cell adhesion protein-1 (VCAM1). In words: Western blot total protein VCAM1. The settings on record: 48 h TGF-β1, AF38Pep or TGF-β1+AF38Pep. It is filed as cell-based. Background: Immunoblotting shows a protein as a band on a membrane.
The subject of data set [3] is human HFL1 lung fibroblast cells. In words: Cytotoxicity/proliferation assay (CCK-8) HFL1. It is filed as cell-based. The conditions noted are these: TGF-β1 stimulated HFL1, over 72 h. As to the method: HFL1 cells were cultured in Kaighn’s modified Ham’s F-12 (F-12K) medium (Sigma-Aldrich) containing NaHCO3 and HEPES buffered to pH 7. Cells were grown to confluence in T75 culture flasks in the presence of 10% fetal bovine serum (FBS; Gibco, Thermo Fisher Scientific, Waltham, MA, USA). HFL1 cells were subcultured using 0.05% trypsin at a ratio of 1:3. NIH/3T3 cells were cultured in Dulbecco’s Modified Eagle Medium (DMEM; HyClone, Thermo Fisher Scientific) containing 100 U/mL penicillin and 100 μg/mL streptomycin. Cells were grown to confluence in T75 culture flasks in the presence of 10% FBS. NIH/3T3 cells were subcultured using 0.05% trypsin/EDTA at a ratio of 1:3. All cells were maintained at 37 °C and 5% CO2, and growth medium was replenished every 3 days until experimentation. Cells were growth-arrested in serum-free medium for 48 h before experiments, and all experiments were performed under serum-free conditions using cells between passages 3 and 8.
Cells were seeded into 12-well culture plates at a density of 2.5 × 10^4 and when cultures reached 50% confluence, the culture medium was replaced with fresh serum-free F12K or serum-free DMEM/F12 for 48 h (growth arrest). […] Absorbance was measured at 450 nm wavelength using a Bio-Rad optical plate reader.

Data set [4] relates to NIH/3T3 fibroblasts, collagen gel contraction. In words: Collagen gel contraction assay. It is filed as cell-based, mouse. The settings on record: TGF-β1 10 ng/mL + AF38Pep 10 µg/mL vs TGF-β1 alone. The protocol:
Approximately 2 × 10^4/mL NIH/3T3 fibroblasts were added to a solution containing 3 mg/mL rat tail collagen type I (BD Biosciences, San Diego, CA, USA), 260 mM NaHCO3, 200 mM HEPES and 50 mM NaOH. To each well of a 24-well cell culture plate, 500 µL of collagen-cell solution was added and allowed to polymerize at 37 °C for 1 h. The gels were carefully detached from the well walls before resuspension of gels in 1% FBS-DMEM and maintained at 37 °C, in a 5% CO2 atmosphere for 24 h. The DMEM medium was removed and replaced with serum-free DMEM medium with or without 10 ng/mL TGF-β1 and/or 10 µg/mL AF38Pep. Gels were photographed and measured at days 0, 1, 2, 4, and 6 after treatment. The average contraction values were obtained using ImageJ v1.37c (NIH, Bethesda, MD, USA) and are expressed as a percentage of contraction versus the initial gel diameter at 0 days.

Data set [5] addresses COL-RGD (RGD motif of collagen I) (Homo sapiens, UniProt P02452). In words: Isothermal calorimetry, AF38Pep with COL-RGD. It is filed as binding. The settings on record: 25 °C, pH 7. The protocol: Custom designed peptides were resuspended in sterile-filtered HEPES buffered saline (140 mM NaCl, 1.5 mM Na2HPO4, 50 mM HEPES; pH 7). The larger EDA-FN binding peptide was diluted to 15 µM, degassed and added to the calorimetry chamber well. Three smaller test peptides (fibronectin EDA-peptide, FN-EDA; fibronectin RGD-peptide, FN-RGD and collagen I RGD-peptide, COL-RGD) were diluted to 300 µM, degassed and each was separately loaded into the calorimetry injection needle. The chamber well temperature was kept consistent at 25 °C. Blank buffer was used to replace either the well peptide or the injection needle peptide to account for background heat generation. Isothermal titration calorimetry was performed using a MicroCal iTC200 (Malvern Panalytical, Malvern, UK) and dissociation constant (KD) and association constant (KA) were calculated using the one set of sites model fitting (with number of binding sites assumed to be 1) in MicroCal Origin Software v8.5 (Malvern Panalytical).
(In general: ITC needs no label: the signal is the heat of the interaction.)

Bridges are numbered along the chain shown (N, C = ends). Where no end group is shown, it is not given here.

“VMPYISTTPAKPCTSENCGNSWYGGFKSKNENKIYFIN (disulfide 13-18 (inferred)) [AF38Pep]”: the “MRTFA mRNA expression” value in data set [1] is “attenuated”. The VCAM1 total protein result in data set [2] was “remained unaffected”. Besides, in data set [3], the cytotoxicity/proliferation entry is given as “not detrimental to cell numbers”. In addition, the collagen gel contraction entry is “significantly delayed collagen gel contraction” in data set [4] (96 h) and “maintained a significant difference in contraction” in data set [4] (144 h). The “ITC interaction (thermogram)” value in data set [5] is “not between AF38Pep and FN-RGD or COL-RGD”.
